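48-hour exposure; five concentrations; linearly interpolated endpoints. Here, GI50 denotes the concentration required for 50% inhibition of growth.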 Calls of active or inactive are those of the source. Cut-off read from the data, not from the text of the source: active = GI50 up to about 1.1 µM and inactive = higher.
Columns and labels:
Experiment in all cases: NCI-60 cell line screen, 48 h
[1] = test system: TK-10
[2] = test system: U-251
[3] = test system: UO-31
[4] = test system: HCT-15
[5] = test system: SN12C
[6] = test system: K562
[7] = test system: RPMI-8226
[8] = test system: SK-MEL-28
[9] = test system: A498
[10] = test system: MOLT-4
[11] = test system: EKVX
[12] = test system: HCT-116
[13] = test system: UACC-62
[14] = test system: SNB-19
[15] = test system: ACHN
[16] = test system: T47D
[17] = test system: KM12
[18] = test system: CCRF-CEM
[19] = test system: SF-268
[20] = test system: RXF 393
[21] = test system: HOP-92
[22] = test system: PC-3
[23] = test system: OVCAR-8
[24] = test system: OVCAR-4
[25] = test system: MDA-MB-231
[26] = test system: NCI-H226
[27] = test system: HOP-62
[28] = test system: MDA-N
[29] = test system: 786-0
[30] = test system: NCI-H522
[31] = test system: NCI-H23
[32] = test system: COLO 205
[33] = test system: Malme-3M
[34] = test system: NCI-H460
[35] = test system: SK-MEL-5
[36] = test system: SW-620
[37] = test system: OVCAR-3
[38] = test system: LOX IMVI
[39] = test system: NCI/ADR-RES
[40] = test system: CAKI-1
[41] = test system: SR
[42] = test system: BT-549
[43] = test system: HL-60
[44] = test system: SK-OV-3
[45] = test system: MDA-MB-435
[46] = test system: A549
[47] = test system: SK-MEL-2
[48] = test system: Hs-578T
[49] = test system: SF-539
[50] = test system: SF-295
[51] = test system: HCC 2998
[52] = test system: M14
[53] = test system: UACC-257
[54] = test system: MCF7
[55] = test system: OVCAR-5
[56] = test system: DU-145
[57] = test system: HT-29
[58] = test system: IGROV-1
[59] = test system: SNB-75

[N-]=[N+]=CC(=O)OC1Cc2ccccc2C1
GI50 [1]: 97.3 µM (inactive)
GI50 [2]: > 100 µM (inactive)
GI50 [3]: 16.6 µM (inactive)
GI50 [4]: > 100 µM
GI50 [5]: > 39.4 µM (inactive)
GI50 [6]: > 100 µM (inactive)
GI50 [7]: > 100 µM (inactive)
GI50 [8]: > 100 µM (inactive)
GI50 [9]: > 100 µM (inactive)
GI50 [10]: > 100 µM (inactive)
GI50 [11]: > 100 µM (inactive)
GI50 [12]: > 100 µM (inactive)
GI50 [13]: > 100 µM (inactive)
GI50 [14]: > 100 µM (inactive)
GI50 [15]: 27.7 µM (inactive)
GI50 [16]: > 100 µM (inactive)
GI50 [17]: > 100 µM (inactive)
GI50 [18]: > 31.6 µM (inactive)
GI50 [19]: > 100 µM (inactive)
GI50 [20]: > 42.6 µM (inactive)
GI50 [21]: 69.7 µM (inactive)
GI50 [22]: > 95.7 µM (inactive)
GI50 [23]: > 100 µM (inactive)
GI50 [24]: > 100 µM (inactive)
GI50 [25]: > 100 µM (inactive)
GI50 [26]: > 93.3 µM (inactive)
GI50 [27]: > 66.8 µM (inactive)
GI50 [28]: > 100 µM (inactive)
GI50 [29]: > 81.7 µM (inactive)
GI50 [30]: > 71 µM (inactive)
GI50 [31]: > 100 µM (inactive)
GI50 [32]: > 72.6 µM (inactive)
GI50 [33]: > 100 µM (inactive)
GI50 [34]: > 100 µM (inactive)
GI50 [35]: > 56.6 µM (inactive)
GI50 [36]: > 100 µM (inactive)
GI50 [37]: > 100 µM (inactive)
GI50 [38]: > 100 µM (inactive)
GI50 [39]: > 100 µM (inactive)
GI50 [40]: 1 µM (active)
GI50 [41]: > 100 µM (inactive)
GI50 [42]: > 100 µM (inactive)
GI50 [43]: > 100 µM (inactive)
GI50 [44]: > 100 µM (inactive)
GI50 [45]: > 100 µM (inactive)
GI50 [46]: 84.3 µM (inactive)
GI50 [47]: > 100 µM (inactive)
GI50 [48]: 42.9 µM (inactive)
GI50 [49]: > 100 µM (inactive)
GI50 [50]: 61.9 µM (inactive)
GI50 [51]: > 100 µM (inactive)
GI50 [52]: > 100 µM (inactive)
GI50 [53]: > 100 µM (inactive)
GI50 [54]: > 100 µM (inactive)
GI50 [55]: 73.1 µM (inactive)
GI50 [56]: 21.1 µM (inactive)
GI50 [57]: > 100 µM (inactive)
GI50 [58]: > 100 µM (inactive)
GI50 [59]: 50.4 µM (inactive)

O=C(NCCCNCCCNC(=O)c1cc(-c2ccccc2)nc2ccccc12)c1cc(-c2ccccc2)nc2ccccc12
GI50 [1]: 1.91 µM (inactive)
GI50 [2]: 1.69 µM (inactive)
GI50 [3]: 1.83 µM (inactive)
GI50 [4]: 2.6 µM
GI50 [5]: 1.84 µM (inactive)
GI50 [6]: 1.79 µM (inactive)
GI50 [7]: 1.72 µM (inactive)
GI50 [8]: 1.77 µM (inactive)
GI50 [9]: 1.93 µM (inactive)
GI50 [11]: 1.68 µM (inactive)
GI50 [12]: 1.73 µM (inactive)
GI50 [13]: 1.93 µM (inactive)
GI50 [14]: 1.72 µM (inactive)
GI50 [15]: 2.12 µM (inactive)
GI50 [16]: 2.02 µM (inactive)
GI50 [17]: 1.99 µM (inactive)
GI50 [18]: 1.63 µM (inactive)
GI50 [19]: 1.83 µM (inactive)
GI50 [20]: 1.77 µM (inactive)
GI50 [21]: 2.02 µM (inactive)
GI50 [22]: 1.6 µM (inactive)
GI50 [23]: 2.56 µM (inactive)
GI50 [24]: 1.74 µM (inactive)
GI50 [25]: 2.01 µM (inactive)
GI50 [26]: 1.69 µM (inactive)
GI50 [27]: 1.11 µM (active)
GI50 [28]: 1.89 µM (inactive)
GI50 [29]: 1.74 µM (inactive)
GI50 [30]: 2.01 µM (inactive)
GI50 [31]: 1.86 µM (inactive)
GI50 [32]: 1.9 µM (inactive)
GI50 [33]: 2.13 µM (inactive)
GI50 [34]: 1.75 µM (inactive)
GI50 [35]: 1.78 µM (inactive)
GI50 [36]: 2.39 µM (inactive)
GI50 [37]: 1.46 µM (inactive)
GI50 [38]: 1.8 µM (inactive)
GI50 [39]: 2.39 µM (inactive)
GI50 [40]: 1.9 µM (inactive)
GI50 [41]: 1.67 µM (inactive)
GI50 [42]: 10.2 µM (inactive)
GI50 [43]: 1.4 µM (inactive)
GI50 [44]: 2.21 µM (inactive)
GI50 [45]: 1.64 µM (inactive)
GI50 [46]: 1.83 µM (inactive)
GI50 [47]: 2 µM (inactive)
GI50 [48]: 2.35 µM (inactive)
GI50 [49]: 2.47 µM (inactive)
GI50 [50]: 1.88 µM (inactive)
GI50 [51]: 0.834 µM (active)
GI50 [52]: 1.79 µM (inactive)
GI50 [53]: 1.97 µM (inactive)
GI50 [54]: 1.66 µM (inactive)
GI50 [55]: 1.87 µM (inactive)
GI50 [56]: 1.59 µM (inactive)
GI50 [57]: 1.75 µM (inactive)
GI50 [58]: 1.88 µM (inactive)
GI50 [59]: 1.49 µM (inactive)

From ChEMBL document CHEMBL1201862, “PubChem BioAssay data set” (2004)
